Positions of bridges follow the written chain, without caps; N, C: chain ends. Non-standard residues stand in square brackets, D forms with d. Residues, ends and D or L forms follow the SMILES beside them. NMeF = CN[C@@H](Cc1ccccc1)C(=O)O; Gly(N(CH2)3NH2) = NCCCNCC(=O)O; NMeC = CN[C@@H](CS)C(=O)O; NMeA = CN[C@@H](C)C(=O)O; Dap = NC[C@H](N)C(=O)O; Sar = CNCC(=O)O
Experiments:
Myostatin = biological target: T1, Myostatin (Homo sapiens, UniProt O14793); test: HepG2 reporter gene assay, Evaluation Procedure (2): 2-concentrations assay, myostatin inhibition; format: cell-based; settings: Myostatin 10 ng/mL, HepG2; for inhibition at 0.03 µM: peptide 30nM, read-out: Myostatin Inhibition 30nM; for inhibition at 0.1 µM: peptide 100nM, read-out: Myostatin Inhibition 100nM
T1 construct: active myostatin (also called mature myostatin) is a homodimer consisting of two C-terminal growth factor domains; purchased R&D systems 788-G8/CF
T1 sequence (O14793 267-375): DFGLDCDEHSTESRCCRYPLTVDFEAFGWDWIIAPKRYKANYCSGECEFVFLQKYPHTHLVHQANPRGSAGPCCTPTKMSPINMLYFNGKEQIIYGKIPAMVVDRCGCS
Experimental: (§1) The pGL3(CAGA)12-luc plasmid, namely a pGL3 vector (E1751, Promega) having a luciferase gene inserted downstream of a promoter sequence with 12 CAGA repeats attached, was transfected into HepG2 cell line (HB-8065, ATCC). The culture of HepG2 cell line (HB-8065, ATCC) was performed as in the Evaluation Procedure (1).
(§2) Myostatin (788-G8/CF, R&D systems) or GDF-11 (1958-GD-G8/CF, R&D systems) was added at a final concentration of 10 ng/mL. […] At this time, blank wells, in which neither myostatin, GDF-11, nor each peptide was added, were also prepared and incubated in a CO2 incubator (37°C, 5% CO2) for 20 to 24 hours.
(§3) The medium containing the cells was removed, and a mixture containing PBS (14190144, Thermo) and a chromogenic substrate One-Glo Luciferase Assay System (E6120, Promega) at a ratio of 1:1 was added to each well at 100 µL/well. This was stirred with a plate shaker for 5 min and transferred to a 384-well plate (3570, Corning) at a volume of 20 µL/well.
(§4) The plate was centrifuged at 1,000 × g for 1 min and the luminescence signal (700 nm luminescence) was measured using a plate reader (Envision 2104, PerkinElmer). Based on the measurement results, the inhibition rate at each peptide concentration was calculated. […]

GDF-11 = biological target: T2, GDF-11 (Homo sapiens, UniProt O95390); test: HepG2 reporter gene assay, Evaluation Procedure (2): 2-concentrations assay, GDF-11 inhibition; format: cell-based; settings: GDF-11 10 ng/mL; for inhibition at 0.03 µM: HepG2, peptide 30nM, read-out: GDF11 Inhibition 30nM; for inhibition at 0.1 µM: HepG2, peptide 100nM, read-out: GDF11 Inhibition 100nM
T2 construct: purchased R&D systems 1958-GD-G8/CF
T2 sequence (O95390 299-407): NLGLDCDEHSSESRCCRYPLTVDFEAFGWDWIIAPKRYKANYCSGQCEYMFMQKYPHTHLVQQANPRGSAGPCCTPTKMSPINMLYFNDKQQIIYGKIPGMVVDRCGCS
Experimental: as §1, §2, §3, §4

inhibition at 0.03 µM (Myostatin)	inhibition at 0.1 µM (Myostatin)	inhibition at 0.03 µM (GDF-11)	inhibition at 0.1 µM (GDF-11)	Structure (SMILES)
19%	65%	0%	0%	CC[C@H](C)[C@@H]1NC(=O)[C@H](Cc2ccccc2)N(C)C(=O)[C@H](Cc2ccc(O)cc2)NC(=O)[C@H](Cc2c[nH]c3ccccc23)NC(=O)[C@H](CCCNC(=N)N)NC(=O)CN(CCCN)C(=O)CSC[C@@H](C(N)=O)NC(=O)[C@H](Cc2ccccc2)N(C)C(=O)[C@H](C)N(C)C(=O)[C@H](CC(C)C)NC(=O)[C@H](Cc2ccccc2)N(C)C(=O)[C@H](CCCNC(=N)N)NC(=O)[C@H](Cc2ccc(O)cc2)NC(=O)[C@H](Cc2ccc(O)cc2)NC(=O)CN(C)C1=O [Myostatin_000099_01ApG] ({CH2CO}-[Gly(N(CH2)3NH2)]RWY[NMeF]I[Sar]YYR[NMeF]L[NMeA][NMeF]C-NH2; thioether N-15)
18%	62%	0%	0%	CC[C@H](C)[C@@H]1NC(=O)[C@H](Cc2ccccc2)N(C)C(=O)[C@H](Cc2ccc(O)cc2)NC(=O)[C@H](Cc2c[nH]c3ccccc23)NC(=O)[C@H](CCCNC(=N)N)NC(=O)[C@H](CN)NC(=O)CSC[C@@H](C(N)=O)NC(=O)[C@H](Cc2ccccc2)N(C)C(=O)[C@H](C)N(C)C(=O)[C@H](CC(C)C)NC(=O)[C@H](Cc2ccccc2)N(C)C(=O)[C@H](CCCNC(=N)N)NC(=O)[C@H](Cc2ccc(O)cc2)NC(=O)[C@H](Cc2ccc(O)cc2)NC(=O)CN(C)C1=O [Myostatin_000099_01Dap] ({CH2CO}-[Dap]RWY[NMeF]I[Sar]YYR[NMeF]L[NMeA][NMeF]C-NH2; thioether N-15)
64%	89%	0%	5%	CC[C@H](C)[C@@H]1NC(=O)[C@H](Cc2ccccc2)N(C)C(=O)[C@H](Cc2ccc(O)cc2)NC(=O)[C@H](Cc2c[nH]c3ccccc23)NC(=O)[C@H](C)NC(=O)[C@H](C)NC(=O)CSC[C@@H](C(N)=O)NC(=O)[C@H](Cc2ccccc2)N(C)C(=O)[C@H](C)N(C)C(=O)[C@H](CC(C)C)NC(=O)[C@H](Cc2ccccc2)N(C)C(=O)[C@H](CCCNC(=N)N)NC(=O)[C@H](Cc2ccc(O)cc2)NC(=O)[C@H](Cc2ccc(O)cc2)NC(=O)CN(C)C1=O [Myostatin_000099_02A] ({CH2CO}-AAWY[NMeF]I[Sar]YYR[NMeF]L[NMeA][NMeF]C-NH2; thioether N-15)
35%	73%	0%	0%	CC[C@H](C)[C@@H]1NC(=O)[C@H](Cc2ccccc2)N(C)C(=O)[C@H](Cc2ccc(O)cc2)NC(=O)[C@H](Cc2c[nH]c3ccccc23)NC(=O)[C@H](CCCCN)NC(=O)[C@H](C)NC(=O)CSC[C@@H](C(N)=O)NC(=O)[C@H](Cc2ccccc2)N(C)C(=O)[C@H](C)N(C)C(=O)[C@H](CC(C)C)NC(=O)[C@H](Cc2ccccc2)N(C)C(=O)[C@H](CCCNC(=N)N)NC(=O)[C@H](Cc2ccc(O)cc2)NC(=O)[C@H](Cc2ccc(O)cc2)NC(=O)CN(C)C1=O [Myostatin_000099_02K] ({CH2CO}-AKWY[NMeF]I[Sar]YYR[NMeF]L[NMeA][NMeF]C-NH2; thioether N-15)
56%	83%	0%	11%	CC[C@H](C)[C@@H]1NC(=O)[C@H](Cc2ccccc2)N(C)C(=O)[C@H](Cc2ccc(O)cc2)NC(=O)[C@H](Cc2c[nH]c3ccccc23)NC(=O)[C@H](CCCNC(=N)N)NC(=O)[C@H](C)NC(=O)CSC[C@@H](C(=O)N[C@@H](CN)C(N)=O)NC(=O)[C@H](Cc2ccccc2)N(C)C(=O)[C@H](C)N(C)C(=O)[C@H](CC(C)C)NC(=O)[C@H](Cc2ccccc2)N(C)C(=O)[C@H](CCCNC(=N)N)NC(=O)[C@H](Cc2ccc(O)cc2)NC(=O)[C@H](Cc2ccc(O)cc2)NC(=O)CN(C)C1=O [Myostatin_000099_16Dap] ({CH2CO}-ARWY[NMeF]I[Sar]YYR[NMeF]L[NMeA][NMeF]C[Dap]-NH2; thioether N-15)

Second part, the compound before the results:

Structure (SMILES)	inhibition at 0.03 µM (Myostatin)	inhibition at 0.1 µM (Myostatin)	inhibition at 0.03 µM (GDF-11)	inhibition at 0.1 µM (GDF-11)
CC[C@H](C)[C@@H]1NC(=O)[C@H](Cc2ccccc2)N(C)C(=O)[C@H](Cc2ccc(O)cc2)NC(=O)[C@H](Cc2c[nH]c3ccccc23)NC(=O)[C@H](CCCNC(=N)N)NC(=O)[C@H](C)N(C)C(=O)CSC[C@@H](C(N)=O)NC(=O)[C@H](Cc2ccccc2)N(C)C(=O)[C@H](C)N(C)C(=O)[C@H](CC(C)C)NC(=O)[C@H](Cc2ccccc2)N(C)C(=O)[C@H](CCCNC(=N)N)NC(=O)[C@H](Cc2ccc(O)cc2)NC(=O)[C@H](Cc2ccc(O)cc2)NC(=O)CN(C)C1=O [Myostatin_000099_01meA] ({CH2CO}-[NMeA]RWY[NMeF]I[Sar]YYR[NMeF]L[NMeA][NMeF]C-NH2; thioether N-15)	55%	82%	0%	0%
CC[C@H](C)[C@@H]1NC(=O)[C@H](Cc2ccccc2)N(C)C(=O)[C@H](Cc2ccc(O)cc2)NC(=O)[C@H](Cc2c[nH]c3ccccc23)NC(=O)[C@H](CN)NC(=O)[C@H](C)NC(=O)CSC[C@@H](C(N)=O)NC(=O)[C@H](Cc2ccccc2)N(C)C(=O)[C@H](C)N(C)C(=O)[C@H](CC(C)C)NC(=O)[C@H](Cc2ccccc2)N(C)C(=O)[C@H](CCCNC(=N)N)NC(=O)[C@H](Cc2ccc(O)cc2)NC(=O)[C@H](Cc2ccc(O)cc2)NC(=O)CN(C)C1=O [Myostatin_000099_02Dap] ({CH2CO}-A[Dap]WY[NMeF]I[Sar]YYR[NMeF]L[NMeA][NMeF]C-NH2; thioether N-15)	50%	82%	0%	2%
CC[C@H](C)[C@@H]1NC(=O)[C@H](Cc2ccccc2)N(C)C(=O)[C@H](Cc2ccc(O)cc2)NC(=O)[C@H](Cc2c[nH]c3ccccc23)NC(=O)[C@H](CCC(=O)O)NC(=O)[C@H](C)NC(=O)CSC[C@@H](C(N)=O)NC(=O)[C@H](Cc2ccccc2)N(C)C(=O)[C@H](C)N(C)C(=O)[C@H](CC(C)C)NC(=O)[C@H](Cc2ccccc2)N(C)C(=O)[C@H](CCCNC(=N)N)NC(=O)[C@H](Cc2ccc(O)cc2)NC(=O)[C@H](Cc2ccc(O)cc2)NC(=O)CN(C)C1=O [Myostatin_000099_02E] ({CH2CO}-AEWY[NMeF]I[Sar]YYR[NMeF]L[NMeA][NMeF]C-NH2; thioether N-15)	58%	83%	0%	9%
CC[C@H](C)[C@@H]1NC(=O)[C@H](Cc2ccccc2)N(C)C(=O)[C@H](Cc2ccc(O)cc2)NC(=O)[C@H](Cc2c[nH]c3ccccc23)NC(=O)[C@@H](C)NC(=O)[C@H](C)NC(=O)CSC[C@H](C(N)=O)NC(=O)[C@H](Cc2ccccc2)N(C)C(=O)[C@H](C)N(C)C(=O)[C@H](CC(C)C)NC(=O)[C@H](Cc2ccccc2)N(C)C(=O)[C@H](CCCNC(=N)N)NC(=O)[C@H](Cc2ccc(O)cc2)NC(=O)[C@H](Cc2ccc(O)cc2)NC(=O)CN(C)C1=O [Myostatin_99_2da_15dc_NH2] ({CH2CO}-A[dA]WY[NMeF]I[Sar]YYR[NMeF]L[NMeA][NMeF][dC]-NH2; thioether N-15)	94%	98%	15%	48%
CC[C@H](C)[C@@H]1NC(=O)[C@H](Cc2ccccc2)N(C)C(=O)[C@H](Cc2ccc(O)cc2)NC(=O)[C@H](Cc2c[nH]c3ccccc23)NC(=O)[C@H](CCCNC(=N)N)NC(=O)[C@H](C)NC(=O)CSC[C@H](C(N)=O)NC(=O)[C@H](Cc2ccccc2)N(C)C(=O)[C@H](C)N(C)C(=O)[C@H](CC(C)C)NC(=O)[C@H](Cc2ccccc2)N(C)C(=O)[C@H](CCCNC(=N)N)NC(=O)[C@H](Cc2ccc(O)cc2)NC(=O)[C@H](Cc2ccc(O)cc2)NC(=O)CN(C)C1=O [Myostatin_000099_15dc] ({CH2CO}-ARWY[NMeF]I[Sar]YYR[NMeF]L[NMeA][NMeF][dC]-NH2; thioether N-15)	69%	89%	0%	12%
CC[C@H](C)[C@@H]1NC(=O)[C@H](Cc2ccccc2)N(C)C(=O)[C@H](Cc2ccc(O)cc2)NC(=O)[C@H](Cc2c[nH]c3ccccc23)NC(=O)[C@H](CCCNC(=N)N)NC(=O)[C@H](C)NC(=O)CSC[C@@H](C(N)=O)N(C)C(=O)[C@H](Cc2ccccc2)N(C)C(=O)[C@H](C)N(C)C(=O)[C@H](CC(C)C)NC(=O)[C@H](Cc2ccccc2)N(C)C(=O)[C@H](CCCNC(=N)N)NC(=O)[C@H](Cc2ccc(O)cc2)NC(=O)[C@H](Cc2ccc(O)cc2)NC(=O)CN(C)C1=O [Myostatin_000099_15meC] ({CH2CO}-ARWY[NMeF]I[Sar]YYR[NMeF]L[NMeA][NMeF][NMeC]-NH2; thioether N-15)	50%	75%	0%	4%

From patent EP4786487A1, “PEPTIDE” (Peptidream Inc, priority 2023, dated 2025)
